From publication PMC9370021, “Novel 1,3-Thiazole Analogues with Potent Activity against Breast Cancer: A Design, Synthesis, In Vitro, and In Silico Study” (Molecules, 2022) come the findings set out here.

The test system of data set [1] is MCF-7 breast cancer cell line. The data set is described as follows: MTT anti-proliferative assay, MCF-7. Type of data set: cell-based. The conditions noted are these: Homo sapiens, MCF7, 48 h, mean ± S.E.M. On the procedure: (§1) Toward this aim, the cells were treated with the synthesized compounds at different concentrations and were incubated for 48 h. In our evaluations, staurosporine (STU) was used as a reference drug. After the cells were washed, they were treated with MTT solution, and an ELISA reader assessed the absorption of the solution at a wavelength of 570 nm.
(§2) Finally, the resulting MTT crystals were dissolved at ambient temperature in acidified isopropanol (180 µL/well) with shaking, and the absorption was assessed at 570 nm utilizing ELISA.
In general terms: Tetrazolium assays rely on reduction of a dye to a coloured formazan, in cell work by metabolically active cells.

Data set [2] relates to MDA-MB-231 breast cancer cell line. The data set is described as follows: MTT anti-proliferative assay, MDA-MB-231. Type of data set: cell-based. Particulars: mean ± S.E.M. On the procedure:
as §1, §2

Another data set concerns the target human VEGFR-2/KDR (Homo sapiens, UniProt P35968). Put plainly: VEGFR-2 inhibitory activity (VEGFR-2/KDR ELISA kit).
For data set [3], the system named is MCF-7 cells. The data set is described as follows: Annexin V-FITC/PI dual staining (apoptosis and necrosis). The class given is cell-based. Particulars: MCF-7, 5.73 µM, 24 h. On the procedure: Our findings encouraged us to further explore the mechanistic insights accounting for the potent cytotoxicity and cell cycle arrest. To investigate whether the mode of action for the antiproliferative activity of compound 4 toward MCF-7 cells involves apoptosis and/or necrosis, we performed Annexin V- FITC/PI dual staining assay. To this end, we treated MCF-7 cells with compound 4 (5.73 µM) for 24h and assessed the programmed cell death at different stages utilizing the cytofluorometry analysis. […] Indeed, treatment with compound 4 increased apoptosis by 9 and 89 times at the early and late stages, respectively, compared to control cells.
To explore the effect of compound 4 on the programmed cell death mechanisms of MCF-7 cells, fluorescent Annexin V-FITC/ PI assay was performed using flow cytometry following a previously reported procedure. Briefly, MCF-7 cells (2 × 10^5) were treated with compound 4 at 5.73 µM concentration. After incubation for 24 h, the harvested cells were stained in the dark at 37 °C with Annexin V-FITC/ PI dye for 15 min. Cytofluorometry analysis was assessed by BD FACS Calibur (Becton and Dickinson, Heidelberg, Germany), and the BD cell Quest pro software was utilized to analyze the results.

The subject of data set [4] is epithelial breast cell line MCF-10A. The data set is described as follows: MTT cytotoxicity assay, epithelial breast cells MCF-10A. The conditions noted are these: Homo sapiens, 48 h, mean ± S.E.M. Type of data set: cell-based. On the procedure:
as §1, §2

The subject of data set [5] is MCF-7 cells. Put plainly: Cell cycle analysis by flow cytometry (propidium iodide). Type of data set: cell-based. The conditions noted are these: MCF-7, 5.73 µM, 24 h. How it is done:
Based on the anti-proliferative activity results, we selected compound 4 to further explore and achieve insights into the mechanism responsible for the cytotoxicity of this class of compounds. Toward this aim, we assessed the effect of compound 4 on the cell cycle distribution of MCF-7 cells utilizing flow cytometry analysis. The cell cycle distribution analysis was evaluated after incubation of MCF-7 cells with compound 4 at 5.73 µM. […] Further, compound 4 induced a substantial diminution in the cellular population at the G2/M stage. As indicated in Figure 5a–c, the cellular populations of the G2/M and pre-G1 phases in the control cells were 16.99% and 2.12%, respectively, while the populations were altered to 6.81% and 31.66%, respectively, in the presence of compound 4 at 5.73 µM.
To assess the effect of compound 4 on the cell cycle of MCF-7 cells, we treated the MCF-7 cells with compound 4 and analyzed the cell cycle arrest at different stages as previously reported. […] After the cells were incubated with propidium iodide (5 mg/mL, Sigma, Ronkonkoma, NY, USA) and Rnase (10 mg/mL, Sigma, Ronkonkoma, NY, USA), cytofluorometry analysis was performed using FACS Calibur cytometer, and the results were analyzed utilizing Cell quest software (BD Bioscience, San Jose, CA, USA).

human VEGFR-2/KDR, sequence (P35968 20-1356): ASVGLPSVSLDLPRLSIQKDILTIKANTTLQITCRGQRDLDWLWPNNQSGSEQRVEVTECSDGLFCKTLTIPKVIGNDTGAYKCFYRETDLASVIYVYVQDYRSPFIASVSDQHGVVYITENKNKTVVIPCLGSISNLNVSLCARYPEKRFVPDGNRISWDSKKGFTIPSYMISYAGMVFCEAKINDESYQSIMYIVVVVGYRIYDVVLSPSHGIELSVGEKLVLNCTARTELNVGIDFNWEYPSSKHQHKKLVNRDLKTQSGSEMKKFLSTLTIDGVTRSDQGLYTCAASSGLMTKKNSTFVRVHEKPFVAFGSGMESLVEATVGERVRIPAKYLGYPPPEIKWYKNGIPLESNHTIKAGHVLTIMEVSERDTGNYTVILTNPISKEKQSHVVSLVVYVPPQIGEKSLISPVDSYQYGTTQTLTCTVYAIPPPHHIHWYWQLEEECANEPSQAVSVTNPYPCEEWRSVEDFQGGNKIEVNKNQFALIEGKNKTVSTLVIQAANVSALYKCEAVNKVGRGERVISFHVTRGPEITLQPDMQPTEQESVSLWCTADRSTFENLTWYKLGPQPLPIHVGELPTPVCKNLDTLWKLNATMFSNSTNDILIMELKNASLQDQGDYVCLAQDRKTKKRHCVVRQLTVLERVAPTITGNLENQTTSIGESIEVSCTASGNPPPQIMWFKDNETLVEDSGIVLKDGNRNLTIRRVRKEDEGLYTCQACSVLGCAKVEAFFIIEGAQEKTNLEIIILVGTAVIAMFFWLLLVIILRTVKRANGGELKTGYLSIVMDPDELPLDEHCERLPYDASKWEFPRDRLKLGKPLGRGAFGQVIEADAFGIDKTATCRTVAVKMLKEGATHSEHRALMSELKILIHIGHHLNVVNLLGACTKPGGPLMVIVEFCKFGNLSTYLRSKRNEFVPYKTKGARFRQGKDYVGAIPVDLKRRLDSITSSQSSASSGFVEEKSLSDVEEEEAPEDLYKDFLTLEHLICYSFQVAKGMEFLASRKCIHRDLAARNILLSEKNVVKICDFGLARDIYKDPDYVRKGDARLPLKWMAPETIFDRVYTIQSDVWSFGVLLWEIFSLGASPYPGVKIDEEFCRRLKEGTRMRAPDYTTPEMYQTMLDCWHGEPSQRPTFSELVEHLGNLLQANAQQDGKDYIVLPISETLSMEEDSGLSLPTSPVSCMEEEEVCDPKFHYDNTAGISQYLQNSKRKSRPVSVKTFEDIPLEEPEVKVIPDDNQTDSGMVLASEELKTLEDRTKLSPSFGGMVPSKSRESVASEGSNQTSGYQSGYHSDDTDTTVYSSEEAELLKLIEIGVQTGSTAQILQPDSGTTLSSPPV
Method for human VEGFR-2/KDR: In our experiments, we used Sorafenib as a positive control drug reference. The activity of compounds was assessed at different concentrations, and the IC50 values were determined.

As to `Oc1ccc(/C=N/Nc2nc(-c3ccc(Cl)cc3)cs2)cc1` [Compound 3a, (E)-4-((2-(4-(4-Chlorophenyl)thiazol-2-yl)hydrazineylidene)methyl)-phenol], the IC50 is 24.9 ± 1.9 µM in data set [1] and 18.7 ± 1.42 µM in data set [2] (Homo sapiens, MDA-MB-231, 48 h).

Compound `C/C(=N\Nc1nc(-c2ccc(Cl)cc2)cs1)c1ccc(Br)cc1` [Compound 3b, (E)-2-(2-(1-(4-bromophenyl)ethylidene)hydrazineyl)-4-(4-chlorophenyl)thiazole] came in with a melting point of 185 °C. In data set [1], this compound registered an IC50 of 31.2 ± 2.38 µM. The IC50 in data set [2] (Homo sapiens, MDA-MB-231, 48 h) amounted to 36.8 ± 2.81 µM.

Take `C/C(=N\Nc1nc(-c2ccc(Br)cc2)cs1)c1ccccc1O` [Compound 3c, (E)-2-(1-(2-(4-(4-Bromophenyl)thiazol-2-yl)hydrazineylidene)ethyl)-phenol]: the IC50 turned out to be 13.7 ± 1.04 µM in data set [1]; 0.253 ± 0.54 µM at human VEGFR-2/KDR; 17.08 ± 0.13 µM in data set [2] (48 h); 17.1 µM in data set [2] (Homo sapiens, MDA-MB-231, 48 h).

`CC(=O)Nc1nc(-c2ccc(Cl)cc2)cs1` [Compound 4, N-(4-(4-Chlorophenyl)-Thiazol-2-yl)Acetamide]: in the data set with MCF-7 cells [3], the “increase of apoptosis at the early stage compared to control cells” value was determined as 9 times. The “increase of apoptosis at the late stage compared to control cells” value with MCF-7 cells [3] was determined as 89 times. In addition, the “increase of necrosis compared to control cells” value in the data set with MCF-7 cells [3] was 9 times. In the data set on MCF-7 cells [3] (control 1.26%), the necrosis percentage is recorded as 11.77%. For the same compound, the IC50 in data set [1] worked out at 5.73 ± 0.44 µM; in data set [4], 36.8 ± 5 µM; in data set [2] (Homo sapiens, MDA-MB-231, 48 h) it was 12.2 ± 0.93 µM. Further, the “cellular population in pre-G1 phase” value in the data set with MCF-7 cells [5] (control 2.12%) stood at 31.66%. Also, the “cellular population in G2/M phase” value in the data set with MCF-7 cells [5] (control 16.99%) came to 6.81%.

Take `C/C(=N\N(c1nc(-c2ccc(Cl)cc2)cs1)C(O)c1ccc(O)cc1)c1ccc(Br)cc1` (stereo not drawn) [Compound 5a, (E)-4-((2-(1-(4-Bromophenyl)ethylidene)-1-(4-(4-chlorophenyl)thiazol-2-yl)hydrazineyl)(hydroxy)methyl)phenol]: the melting point was in the range of 155 to 157 °C. In addition, the IC50 in data set [1] amounted to 18.6 ± 1.42 µM. The same compound displayed an IC50 in data set [2] (Homo sapiens, MDA-MB-231, 48 h) of 20.7 ± 1.58 µM.

With `COc1cc(C(O)N(/N=C(\C)c2ccc(Br)cc2)c2nc(-c3ccc(Cl)cc3)cs2)ccc1O` (stereo not drawn) [Compound 5b, (E)-4-((2-(1-(4-Bromophenyl)ethylidene)-1-(4-(4-chlorophenyl)thiazol-2-yl)hydrazineyl)(hydroxy)methyl)-2-methoxyphenol], the melting point was 158 to 160 °C. The compound also gave an IC50 in data set [1] of 32.5 ± 2.47 µM. Besides, the IC50 in data set [2] (Homo sapiens, MDA-MB-231, 48 h) stood at 62.12 ± 0.47 µM.

On to `CC(=O)Oc1ccc(C(OC(C)=O)N(/N=C(\C)c2ccc(Br)cc2)c2nc(-c3ccc(Cl)cc3)cs2)cc1` (stereo not drawn) [Compound 6a, (E)-4-(Acetoxy(2-(1-(4-bromophenyl)ethylidene)-1-(4-(4-chlorophenyl)thiazol-2-yl)hydrazineyl)methyl)phenyl acetate], for which the melting point was 126 to 128 °C. The IC50 in data set [1] is above 100 µM. The compound also yielded an IC50 in data set [2] (Homo sapiens, MDA-MB-231, 48 h) above 100 µM.

For `COc1cc(C(OC(C)=O)N(/N=C(\C)c2ccc(Br)cc2)c2nc(-c3ccc(Cl)cc3)cs2)ccc1OC(C)=O` (stereo not drawn) [Compound 6b, (E)-4-(Acetoxy(2-(1-(4-bromophenyl)ethylidene)-1-(4-(4-chlorophenyl)thiazol-2-yl)hydrazineyl)methyl)-2-methoxyphenyl acetate], the melting point lay in the range of 126 to 128 °C. Half-maximal inhibition in data set [1] (IC50) was put at 43.8 ± 2.04 µM. In addition, the IC50 in data set [2] (Homo sapiens, MDA-MB-231, 48 h) is 77 ± 1.95 µM.

What is called IC50 is the point on the concentration scale where inhibition reaches its midpoint. Read a low IC50 as greater potency in that assay. What is called melting point is the temperature of the solid-liquid transition.
